Measurements reported in ChEMBL document CHEMBL1862790, “Optimisation of fenarimol series for the treatment of Chagas disease”.

Key:
Trypanosoma cruzi [1] = experiment: microbe, parasite or virus in culture; type: functional, organism-based, Tulahuen LacZ, Clone C4; conditions: Trypanosoma cruzi, Tulahuen LacZ, Clone C4
[2] = DNDI: Cytotoxicity against L-6 rat myoblasts from skeletal muscle cells; conditions: L6 rat skeletal muscle myoblast cells, IC50
Trypanosoma cruzi [3] = experiment: microbe, parasite or virus in culture; type: functional, Tulahuen LacZ, Clone C4
[4] = Trypanosoma cruzi, Tulahuen LacZ, Clone C4

IC50 (Trypanosoma cruzi [1]) [nM] | IC90 (Trypanosoma cruzi [3]; [4]) [nM] | IC90 (Trypanosoma cruzi [3]) [nM] | SMILES | IC50 [2] [nM]
24 | 266 |  | CC(C)(C)C(=O)N1CCC(NC(c2ccc(C(F)(F)F)cc2)c2cccnc2)CC1 (centres undefined) | > 100000
8.5 | 57.5 |  | O=C(NC1CCN(C(c2ccc(C(F)(F)F)cc2)c2cccnc2)CC1)c1ccccc1 (centres undefined) | 62600
50 | 103 |  | Cc1cc(C(=O)NC2CCN(C(c3ccc(C#N)cc3)c3cccnc3)CC2)no1 (centres undefined) | > 100000
585 | 996 |  | CC(C)(C)NC(=O)N1CCC(NC(c2ccc(C#N)cc2)c2cccnc2)CC1 (centres undefined) | > 100000
174 | 298 |  | N#Cc1ccc(C(c2cccnc2)N2CCC(NC(=O)c3cscn3)CC2)cc1 (centres undefined) | > 100000
71 | 202 |  | Cc1ncsc1C(=O)NC1CCN(C(c2ccc(C#N)cc2)c2cccnc2)CC1 (centres undefined) | > 100000
66.5 | 278 |  | Cc1cc(C(=O)N2CCN(C(c3cccnc3)c3ccc(Cl)cc3F)CC2)no1 (centres undefined) | 69700
218 | 833 |  | O=C(c1cscn1)N1CCC(NC(c2ccc(C(F)(F)F)cc2)c2cccnc2)CC1 (centres undefined) | > 100000
50.5 | 183 |  | O=C(C1CC1)N1CCN(C(c2ccc(C(F)(F)F)cc2)c2cccnc2)CC1 (centres undefined) | > 100000
241 | 832 |  | O=C(c1cscn1)N1CCC(NC(c2cccnc2)c2ccc(Cl)cc2F)CC1 (centres undefined) | > 100000
40 | 173 |  | O=C1NCCN1C1CCN(C(c2ccc(Cl)cc2)c2cccnc2)CC1 (centres undefined) | 67800
> 1000 | > 1000 |  | O=C(NC1CC1)N1CCN(C(c2ccc(C(F)(F)F)cc2)c2cncnc2)CC1 (centres undefined) | > 100000
10.5 | 92.5 |  | FC(F)(F)c1ccc(C(NC2CCN(c3ncccn3)CC2)c2cccnc2)cc1 (centres undefined) | 55100
80.5 | 302 |  | CC(C)(C)C(=O)N1CCN(C(c2cncnc2)c2ccc(Cl)cc2F)CC1 (centres undefined) | > 100000
78.5 | 436 |  | Cc1ncsc1C(=O)NC1CCN(C(c2cncnc2)c2ccc(Cl)cc2F)CC1 (centres undefined) | > 100000
126 | 584 |  | O=C(C1CC1)N1CCC(NC(c2cccnc2)c2ccc(Cl)cc2F)CC1 (centres undefined) | > 100000
490 | 792 |  | O=C(NC1CC1)N1CCN(C(c2cncnc2)c2ccc(C(F)(F)F)cc2F)CC1 (centres undefined) | > 100000
4.5 | 10 |  | Fc1cc(Cl)ccc1C(NC1CCN(c2ccccc2F)CC1)c1cccnc1 (centres undefined) | 53200
433 | 948 |  | N#Cc1ccc(C(NC2CCN(C(=O)c3ccccc3)CC2)c2cccnc2)cc1 (centres undefined) | > 100000
10 | 40 |  | N#Cc1ccc(C(c2cccnc2)N2CCC(NC(=O)c3ccc(F)cc3F)CC2)cc1 (centres undefined) | > 100000
39 | 368 |  | N#Cc1ccc(C(c2cccnc2)N2CCC(NC(=O)c3cccc(F)c3)CC2)cc1 (centres undefined) | > 100000
65 | 156 |  | Cc1nc(C(=O)NC2CCN(C(c3ccc(C#N)cc3)c3cccnc3)CC2)cs1 (centres undefined) | > 100000
5.5 |  | 420 | FC(F)(F)c1ccc(C(NC2CCN(c3nccs3)CC2)c2cccnc2)cc1 (centres undefined) | 56400

IC50 (Trypanosoma cruzi [1]) [nM] | IC90 (Trypanosoma cruzi [3]; [4]) [nM] | IC90 (Trypanosoma cruzi [3]) [nM] | SMILES | IC50 [2] [nM]
24.5 | 356 |  | NC(=O)c1cccc(C(O)(c2cccnc2)c2ccc(Cl)cc2F)c1 (centres undefined) | > 100000
183 | 320 |  | Cc1ncoc1C(=O)NC1CCN(C(c2ccc(C#N)cc2)c2cccnc2)CC1 (centres undefined) | > 100000
281 | 556 |  | N#Cc1ccc(C(c2cccnc2)N2CCN(C(=O)C3CC3)CC2)cc1 (centres undefined) | > 100000
23 | 75.5 |  | N#Cc1ccc(C(c2cccnc2)N2CCC(NC(=O)c3cccc(C(F)(F)F)c3)CC2)cc1 (centres undefined) | > 100000
365 | 734 |  | CS(=O)(=O)N1CCN(C(c2ccc(C#N)cc2)c2cccnc2)CC1 (centres undefined) | > 100000
118 | 732 |  | O=C(c1cccc(C(O)(c2ccc(Cl)cc2)c2cccnc2)c1)N1CCC(O)CC1 (centres undefined) | > 100000
114 | 272 |  | Cc1nc(C(=O)NC2CCN(C(c3ccc(C#N)cc3)c3cccnc3)CC2)co1 (centres undefined) | > 100000
36 | 244 |  | Cc1ncsc1C(=O)N1CCN(C(c2cccnc2)c2ccc(Cl)cc2F)CC1 (centres undefined) | 92700
58 | 248 |  | O=C(c1ccccc1)N1CCC(NC(c2cccnc2)c2ccc(Cl)cc2F)CC1 (centres undefined) | 70800
23.5 | 402 |  | N#Cc1ccc(C(c2cccnc2)N2CCC(NC(=O)c3ccccc3F)CC2)cc1 (centres undefined) | > 100000
64 | 127 |  | Cc1noc(N2CCN(C(c3ccc(C#N)cc3)c3cccnc3)CC2)n1 (centres undefined) | > 100000
24.5 | 72.5 |  | CS(=O)(=O)N1CCN(C(c2cncnc2)c2ccc(C(F)(F)F)cc2F)CC1 (centres undefined) | > 100000
134 | 540 |  | CS(=O)(=O)N1CCC(NC(c2cccnc2)c2ccc(Cl)cc2F)CC1 (centres undefined) | > 100000
64 | 140 |  | Cc1nc(N2CCC(NC(c3cccnc3)c3ccc(Cl)cc3F)CC2)no1 (centres undefined) | > 100000
18.5 | 122 |  | N#Cc1ccc(C(c2cccnc2)N2CCC(NC(=O)c3ccc(F)cc3)CC2)cc1 (centres undefined) | > 100000
59 | 118 |  | Cc1nc(C)c(C(=O)NC2CCN(C(c3ccc(C#N)cc3)c3cccnc3)CC2)s1 (centres undefined) | > 100000
138 | 358 |  | N#Cc1ccc(C(c2cccnc2)N2CCC(NC(=O)c3nccs3)CC2)cc1 (centres undefined) | > 100000
21.5 | 114 |  | O=C(NC1CCN(C(c2cncnc2)c2ccc(Cl)cc2F)CC1)c1ccc(F)cc1 (centres undefined) | 60100
236 | 670 |  | Cc1cc(C(=O)NC2CCN(C(c3ccc(C#N)cc3)c3cccnc3)CC2)[nH]n1 (centres undefined) | > 100000
6.87 | 29.6 |  | N#Cc1ccc(C(c2cccnc2)N2CCC(NC(=O)c3ccc(F)cc3C(F)(F)F)CC2)cc1 (centres undefined) | 78500
9 | 65.5 |  | Fc1cc(Cl)ccc1C(NC1CCN(c2nccs2)CC1)c1cccnc1 (centres undefined) | 56200
332 | 652 |  | O=C(C1CC1)N1CCN(C(c2ccc(C(F)(F)F)cc2)c2cncnc2)CC1 (centres undefined) | > 100000
> 1000 | > 1000 |  | N#Cc1ccc(C(c2cccnc2)N2CCN(C(=O)NC3CC3)CC2)cc1 (centres undefined) | > 100000

IC50 (Trypanosoma cruzi [1]) [nM] | IC90 (Trypanosoma cruzi [3]; [4]) [nM] | IC90 (Trypanosoma cruzi [3]) [nM] | SMILES | IC50 [2] [nM]
15.5 | 49 |  | N#Cc1ccc(C(c2cccnc2)N2CCC(NC(=O)c3cc(F)ccc3F)CC2)cc1 (centres undefined) | > 100000
25 | 332 |  | OC(c1ccc(Cl)cc1)(c1cccnc1)c1cnc(OCC2CC2)nc1 (centres undefined) | 60400
172 | 756 |  | Cc1cc(C(=O)NC2CCN(C(c3cncnc3)c3ccc(Cl)cc3F)CC2)[nH]n1 (centres undefined) | > 100000
11 | 82.9 |  | O=C(NC1CCN(C(c2cncnc2)c2ccc(Cl)cc2F)CC1)c1ccc(F)cc1C(F)(F)F (centres undefined) | 71400
768 | > 1000 |  | CS(=O)(=O)N1CCN(C(c2ccc(C(F)(F)F)cc2)c2cncnc2)CC1 (centres undefined) | > 100000
192 | 378 |  | Cc1noc(N2CCN(C(c3ccc(C(F)(F)F)cc3)c3cncnc3)CC2)n1 (centres undefined) | > 100000
17 | 55.5 |  | N#Cc1ccc(C(c2cccnc2)N2CCC(NC(=O)c3cccc(F)c3F)CC2)cc1 (centres undefined) | > 100000
79.5 | 428 |  | CC(C)(C)NC(=O)N1CCC(NC(c2cccnc2)c2ccc(Cl)cc2F)CC1 (centres undefined) | > 100000
178 | 332 |  | O=C(C1CC1)N1CCN(C(c2cncnc2)c2ccc(C(F)(F)F)cc2F)CC1 (centres undefined) | > 100000
15 | 114 |  | O=C(NC1CCN(C(c2cncnc2)c2ccc(Cl)cc2F)CC1)c1ccc(F)cc1F (centres undefined) | 81000
15.5 | 204 |  | O=C(NC1CCN(C(c2cncnc2)c2ccc(Cl)cc2F)CC1)c1c(F)cccc1F (centres undefined) | 82300
20.5 | 76.5 |  | N#Cc1ccc(C(c2cccnc2)N2CCC(NC(=O)c3ccc(C(F)(F)F)cc3)CC2)cc1 (centres undefined) | 65700
109 | 266 |  | FC(F)(F)c1ccc(C(c2cncnc2)N2CCN(c3nccs3)CC2)cc1 (centres undefined) | 68200
76.5 | 572 |  | CS(=O)(=O)N1CCN(C(c2ccc(C(F)(F)F)cc2)c2cccnc2)CC1 (centres undefined) | > 100000
55 | 101 |  | Cc1nocc1C(=O)NC1CCN(C(c2ccc(C#N)cc2)c2cccnc2)CC1 (centres undefined) | > 100000
29.5 | 241 |  | O=C(NC1CCN(C(c2cncnc2)c2ccc(Cl)cc2F)CC1)c1cccc(F)c1F (centres undefined) | 75800
> 10000 | > 10000 |  | N#Cc1ccc(C(c2cccnc2)N(C(=O)C2CC2)C2CCN(C(=O)C3CC3)CC2)cc1 (centres undefined) | > 100000
321 | 798 |  | O=C(N1CCN(C(c2ccc(C(F)(F)F)cc2)c2cccnc2)CC1)C(F)(F)F (centres undefined) | 62600
345 | 696 |  | N#Cc1ccc(C(c2cccnc2)N2CCC(NC(=O)c3ccc(C(F)(F)F)cc3F)CC2)cc1 (centres undefined) | 76800
22.5 | 104 |  | O=C(NC1CCN(C(c2cncnc2)c2ccc(Cl)cc2F)CC1)c1cc(F)ccc1F (centres undefined) | 74100
97.5 | 232 |  | CC(C)OCCCNC(=O)c1cccc(C(O)(c2ccc(Cl)cc2)c2cccnc2)c1 (centres undefined) | 74800
51.5 | 104 |  | Cc1noc(C)c1C(=O)NC1CCN(C(c2ccc(C#N)cc2)c2cccnc2)CC1 (centres undefined) | > 100000
